Laboratory results published in BindingDB's records for doi:10.1016/j.bmcl.2008.02.001 (Cephalon, 2008).

Assay: Inhibition of VEGF-stimulated VEGFR2 autophosphorylation in HUVEC cells […] relative to control

IC50: 4 nM
Compound: CO/N=C(\C)c1ccc2c(c1)c1c3c(c4c(c1n2CC(C)C)CCc1nn(C)cc1-4)C(=O)NC3 [7-[(1E)-1-(methoxyimino)ethyl]-19-methyl-3-(2-methylpropyl)-3,13,19,20-tetraazahexacyclo[14.7.0.0^{2,10}.0^{4,9}.0^{11,15}.0^{17,21}]tricosa-1(16),2(10),4,6,8,11(15),17,20-octaen-14-one]
